Where a name gives a salt, the structure may show the parent alone.

The test system of this assay is LPS induced IL-6 secretion from whole blood. Put plainly: Measurement of LPS Induced IL-6 Secretion from Whole Blood. The format is cell-based. The note with it: LPS 200 ng/ml, 24 hours, immunoassay, read-out: pIC50 (IL-6 levels) (converted). On the procedure: Activation of monocytic cells by agonists of toll-like receptors such as bacterial lipopolysaccharide (LPS) results in production of key inflammatory mediators including IL-6. Such pathways are widely considered to be central to the pathophysiology of a range of auto-immune and inflammatory disorders.
After further incubation for 24 hours at 37 degrees, 140 ul of PBS are added to each well. The plates are sealed, shaken for 10 minutes and then centrifuged (2500 rpm×10 min). 100 ul of the supernatant are removed and IL-6 levels assayed by immunoassay (typically by MesoScale Discovery technology) either immediately or following storage at −20 degrees.
For the compound `COc1ccc2c(c1)C(c1ccc(Cl)cc1)=NC(CC(=O)NCCc1ccccc1)c1nnc(C)n1-2` (stereo not shown) [Example 2, 2-[6-(4-chlorophenyl)-1-methyl-8-(methyloxy)-4H-[1,2,4]triazolo[4,3-a][1,4]benzodiazepin-4-yl]-N-(2-phenylethyl)acetamide], the IC50 is at most 10 µM. The figure for `COc1ccc2c(c1)C(c1ccc(Cl)cc1)=NC(CC(=O)N1CCCCC1)c1nnc(C)n1-2` (stereo not shown) [Example 3, 6-(4-chlorophenyl)-1-methyl-8-(methyloxy)-4-[2-oxo-2-(1-piperidinyl)ethyl]-4H-[1,2,4]triazolo[4,3-a][1,4]benzodiazepine] is at most 10 µM; for `COc1ccc2c(c1)C(c1ccc(Cl)cc1)=NC(CC(=O)NCc1ccco1)c1nnc(C)n1-2` (stereo not shown) [Example 4, 2-[6-(4-chlorophenyl)-1-methyl-8-(methyloxy)-4H-[1,2,4]triazolo[4,3-a][1,4]benzodiazepin-4-yl]-N-(2-furanylmethyl)acetamide] it is at most 10 µM.

As for `COc1ccc2c(c1)C(c1ccc(Cl)cc1)=N[C@@H](CC(=O)Nc1ccc(F)cc1)c1nnc(C)n1-2` [Example 11, 2-[(4S)-6-(4-chlorophenyl)-1-methyl-8-(methyloxy)-4H-[1,2,4]triazolo[4,3-a][1,4]benzodiazepin-4-yl]-N-(4-fluorophenyl)acetamide], the IC50 is at most 10 µM. For the compound `COc1ccc2c(c1)C(c1ccc(Cl)cc1)=N[C@@H](CC(=O)Nc1cccnc1)c1nnc(C)n1-2` [Example 13, 2-[(4S)-6-(4-chlorophenyl)-1-methyl-8-(methyloxy)-4H-[1,2,4]triazolo[4,3-a][1,4]benzodiazepin-4-yl]-N-3-pyridinylacetamide], the IC50 was at most 10 µM. For `COc1ccc2c(c1)C(c1ccc(Cl)cc1)=N[C@@H](CC(=O)N[C@@H](C)c1ccccc1)c1nnc(C)n1-2` [Example 17, 2-[(4S)-6-(4-chlorophenyl)-1-methyl-8-(methyloxy)-4H-[1,2,4]triazolo[4,3-a][1,4]benzodiazepin-4-yl]-N-[(1S)-1-phenylethyl]acetamide] the value was at most 10 µM; for `COc1ccc2c(c1)C(c1ccc(Cl)cc1)=NC(CC(=O)NCCN(C)C)c1nnc(C)n1-2` (stereo not shown) [Example 26, 2-[6-(4-chlorophenyl)-1-methyl-8-(methyloxy)-4H-[1,2,4]triazolo[4,3-a][1,4]benzodiazepin-4-yl]-N-[2-(dimethylamino)ethyl]acetamide], at most 10 µM; for `Cc1nnc2n1-c1ccc(OS(C)(=O)=O)cc1C(c1ccc(Cl)cc1)=N[C@H]2CC(=O)Nc1ccc(F)cc1` [Example 31, (4S)-6-(4-Chlorophenyl)-4-{2-[(4-fluorophenyl)amino]-2-oxoethyl}-1-methyl-4H-[1,2,4]triazolo[4,3-a][1,4]benzodiazepin-8-yl methanesulfonate], at most 10 µM. `COC(=O)C[C@@H]1N=C(c2ccc(Cl)cc2)c2cc(OC)ccc2-n2c(C)nnc21` [Example 34, Methyl [(4S)-6-(4-chlorophenyl)-1-methyl-8-(methyloxy)-4H-[1,2,4]triazolo[4,3-a][1,4]benzodiazepin-4-yl]acetate]: the IC50 was at most 10 µM. For `CNCCNC(=O)C[C@@H]1N=C(c2ccc(Cl)cc2)c2cc(OC)ccc2-n2c(C)nnc21` [Example 38, 2-[(4S)-6-(4-Chlorophenyl)-1-methyl-8-(methyloxy)-4H-[1,2,4]triazolo[4,3-a][1,4]benzodiazepin-4-yl]-N-[2-(methylamino)ethyl]acetamide trifluoroacetic acid salt] the value was at most 10 µM; for `COc1ccc2c(c1)C(c1ccc(Cl)cc1)=N[C@@H](CC(=O)NC1CCNCC1)c1nnc(C)n1-2` [Example 39, 2-[(4S)-6-(4-Chlorophenyl)-1-methyl-8-(methyloxy)-4H-[1,2,4]triazolo[4,3-a][1,4]benzodiazepin-4-yl]-N-4-piperidinylacetamide trifluoroacetic acid salt], at most 10 µM; for `CNC1CCN(C(=O)C[C@@H]2N=C(c3ccc(Cl)cc3)c3cc(OC)ccc3-n3c(C)nnc32)CC1` [Example 40, 1-{[(4S)-6-(4-chlorophenyl)-1-methyl-8-(methyloxy)-4H-[1,2,4]triazolo[4,3-a][1,4]benzodiazepin-4-yl]acetyl}-N-methyl-4-piperidinamine formic acid salt], at most 10 µM. On to `COc1ccc2c(c1)C(c1ccc(Cl)cc1)=N[C@@H](CC(=O)N1CCC(N)CC1)c1nnc(C)n1-2` [Example 41, (S)-1-(4-aminopiperidin-1-yl)-2-(6-(4-chlorophenyl)-8-methoxy-1-methyl-4H-benzo[f][1,2,4]triazolo[4,3-a][1,4]diazepin-4-yl)ethanone], for which the IC50 was at most 10 µM. `COc1ccc2c(c1)C(c1ccc(Cl)cc1)=N[C@@H](CC(=O)NC1CNC1)c1nnc(C)n1-2` [Example 42, (S)-N-(azetidin-3-yl)-2-(6-(4-chlorophenyl)-8-methoxy-1-methyl-4H-benzo[f][1,2,4]triazolo[4,3-a][1,4]diazepin-4-yl)acetamide]: the IC50 is at most 10 µM. The figure for `COc1ccc2c(c1)C(c1ccc(Cl)cc1)=N[C@@H](CC(=O)N1CC(N)C1)c1nnc(C)n1-2` [Example 43, (S)-1-(3-aminoazetidin-1-yl)-2-(6-(4-chlorophenyl)-8-methoxy-1-methyl-4H-benzo[f][1,2,4]triazolo[4,3-a][1,4]diazepin-4-yl)ethanone] is at most 10 µM. The figure for `COc1ccc2c(c1)C(c1ccc(Cl)cc1)=N[C@@H](CC(=O)N1CCC(O)CC1)c1nnc(C)n1-2` [Example 44, (S)-2-(6-(4-chlorophenyl)-8-methoxy-1-methyl-4H-benzo[f][1,2,4]triazolo[4,3-a][1,4]diazepin-4-yl)-1-(4-hydroxypiperidin-1-yl)ethanone] is at most 10 µM; for `COc1ccc2c(c1)C(c1ccc(Cl)cc1)=N[C@@H](CC(=O)NCCN1CCOCC1)c1nnc(C)n1-2` [Example 45, 2-[(4S)-6-(4-chlorophenyl)-1-methyl-8-(methyloxy)-4H-[1,2,4]triazolo[4,3-a][1,4]benzodiazepin-4-yl]-N-[2-(4-morpholinyl)ethyl]acetamide] it is at most 10 µM. On to `COc1ccc2c(c1)C(c1ccc(Cl)cc1)=N[C@@H](CC(=O)NCCc1c[nH]cn1)c1nnc(C)n1-2` [Example 46, 2-[(4S)-6-(4-chlorophenyl)-1-methyl-8-(methyloxy)-4H-[1,2,4]triazolo[4,3-a][1,4]benzodiazepin-4-yl]-N-[2-(1H-imidazol-4-yl)ethyl]acetamide], for which the IC50 is at most 10 µM. With `COc1ccc2c(c1)C(c1ccc(Cl)cc1)=N[C@@H](CC(=O)OC(C)(C)C)c1nnc(C)n1-2` [Example 47, (S)-tert-butyl-2-(6-(4-chlorophenyl)-8-methoxy-1-methyl-4H-benzo[f][1,2,4]triazolo[4,3-a][1,4]diazepin-4-yl)acetate], the IC50 was at most 10 µM. Consider `COc1ccc2c(c1)C(c1ccc(Cl)cc1)=N[C@@H](CC(=O)OC1CCNCC1)c1nnc(C)n1-2` [Example 48, (S)-piperidin-4-yl-2-(6-(4-chlorophenyl)-8-methoxy-1-methyl-4H-benzo[f][1,2,4]triazolo[4,3-a][1,4]diazepin-4-yl)acetate], for which the IC50 is at most 10 µM.

For the compound `COc1ccc2c(c1)C(c1ccc(Cl)cc1)=N[C@@H](CC(=O)NCCN(C)C)c1nnc(C)n1-2` [Example 50, 2-[(4S)-6-(4-chlorophenyl)-1-methyl-8-(methyloxy)-4H-[1,2,4]triazolo[4,3-a][1,4]benzodiazepin-4-yl]-N-[2-(dimethylamino)ethyl]acetamide formic acid salt], the IC50 was at most 10 µM. As to `COc1ccc2c(c1)C(c1ccc(Cl)cc1)=N[C@@H](CC(=O)NCCCN(C)C)c1nnc(C)n1-2` [Example 51, 2-[(4S)-6-(4-chlorophenyl)-1-methyl-8-(methyloxy)-4H-[1,2,4]triazolo[4,3-a][1,4]benzodiazepin-4-yl]-N-[3-(dimethylamino)propyl]acetamide formic acid salt], the IC50 was at most 10 µM. In the case of `COc1ccc2c(c1)C(c1ccc(Cl)cc1)=N[C@@H](CC(=O)Nc1ccncn1)c1nnc(C)n1-2` [Example 54, 2-[(4S)-6-(4-chlorophenyl)-1-methyl-8-(methyloxy)-4H-[1,2,4]triazolo[4,3-a][1,4]benzodiazepin-4-yl]-N-4-pyrimidinylacetamide], the IC50 was at most 10 µM. For `COc1ccc2c(c1)C(c1ccc(Cl)cc1)=N[C@@H](CC(=O)Nc1cc(C)on1)c1nnc(C)n1-2` [Example 55, 2-[(4S)-6-(4-chlorophenyl)-1-methyl-8-(methyloxy)-4H-[1,2,4]triazolo[4,3-a][1,4]benzodiazepin-4-yl]-N-(5-methyl-3-isoxazolyl)acetamide] the value was at most 10 µM. Turning to `COc1ccc2c(c1)C(c1ccc(Cl)cc1)=N[C@@H](CC(=O)NC1CCOCC1)c1nnc(C)n1-2` [Example 56, 2-[(4S)-6-(4-chlorophenyl)-1-methyl-8-(methyloxy)-4H-[1,2,4]triazolo[4,3-a][1,4]benzodiazepin-4-yl]-N-(tetrahydro-2H-pyran-4-yl)acetamide], the IC50 is at most 10 µM.

In the case of `COc1ccc(COC(=O)C[C@@H]2N=C(c3ccc(Cl)cc3)c3cc(OC)ccc3-n3c(C)nnc32)cc1` [Example 58], the IC50 is at most 10 µM. Take `COc1ccc2c(c1)C(c1ccc(Cl)cc1)=N[C@@H](CC(=O)OCC(C)C)c1nnc(C)n1-2` [Example 59]: the IC50 is at most 10 µM.

`COc1ccc2c(c1)C(c1ccc(Cl)cc1)=N[C@@H](CC(=O)OC1CCOCC1)c1nnc(C)n1-2` [Example 60]: the IC50 was at most 10 µM. `COc1ccc2c(c1)C(c1ccc(Cl)cc1)=NC(CC(=O)Nc1ccncc1)c1nnc(C)n1-2` (stereo not shown) [Example 61]: the IC50 is at most 10 µM. The figure for `COc1ccc2c(c1)C(c1ccc(Cl)cc1)=NC(CC(=O)NCC1CC1)c1nnc(C)n1-2` (stereo not shown) [Example 62] is at most 10 µM; for `Cc1nnc2n1-c1ccccc1C(c1ccc(Cl)cc1)=NC2CC(=O)Nc1ccncc1` (stereo not shown) [Example 63] it is at most 10 µM.

The values are drawn from patent publication US9598420B2, “Benzodiazepine bromodomain inhibitor” (GlaxoSmithKline LLC, priority 2009, dated 2017).
